The target of test [1] is T1, Cyclin-G-associated kinase (Homo sapiens, UniProt O14976).
T1 sequence (O14976 whole entry): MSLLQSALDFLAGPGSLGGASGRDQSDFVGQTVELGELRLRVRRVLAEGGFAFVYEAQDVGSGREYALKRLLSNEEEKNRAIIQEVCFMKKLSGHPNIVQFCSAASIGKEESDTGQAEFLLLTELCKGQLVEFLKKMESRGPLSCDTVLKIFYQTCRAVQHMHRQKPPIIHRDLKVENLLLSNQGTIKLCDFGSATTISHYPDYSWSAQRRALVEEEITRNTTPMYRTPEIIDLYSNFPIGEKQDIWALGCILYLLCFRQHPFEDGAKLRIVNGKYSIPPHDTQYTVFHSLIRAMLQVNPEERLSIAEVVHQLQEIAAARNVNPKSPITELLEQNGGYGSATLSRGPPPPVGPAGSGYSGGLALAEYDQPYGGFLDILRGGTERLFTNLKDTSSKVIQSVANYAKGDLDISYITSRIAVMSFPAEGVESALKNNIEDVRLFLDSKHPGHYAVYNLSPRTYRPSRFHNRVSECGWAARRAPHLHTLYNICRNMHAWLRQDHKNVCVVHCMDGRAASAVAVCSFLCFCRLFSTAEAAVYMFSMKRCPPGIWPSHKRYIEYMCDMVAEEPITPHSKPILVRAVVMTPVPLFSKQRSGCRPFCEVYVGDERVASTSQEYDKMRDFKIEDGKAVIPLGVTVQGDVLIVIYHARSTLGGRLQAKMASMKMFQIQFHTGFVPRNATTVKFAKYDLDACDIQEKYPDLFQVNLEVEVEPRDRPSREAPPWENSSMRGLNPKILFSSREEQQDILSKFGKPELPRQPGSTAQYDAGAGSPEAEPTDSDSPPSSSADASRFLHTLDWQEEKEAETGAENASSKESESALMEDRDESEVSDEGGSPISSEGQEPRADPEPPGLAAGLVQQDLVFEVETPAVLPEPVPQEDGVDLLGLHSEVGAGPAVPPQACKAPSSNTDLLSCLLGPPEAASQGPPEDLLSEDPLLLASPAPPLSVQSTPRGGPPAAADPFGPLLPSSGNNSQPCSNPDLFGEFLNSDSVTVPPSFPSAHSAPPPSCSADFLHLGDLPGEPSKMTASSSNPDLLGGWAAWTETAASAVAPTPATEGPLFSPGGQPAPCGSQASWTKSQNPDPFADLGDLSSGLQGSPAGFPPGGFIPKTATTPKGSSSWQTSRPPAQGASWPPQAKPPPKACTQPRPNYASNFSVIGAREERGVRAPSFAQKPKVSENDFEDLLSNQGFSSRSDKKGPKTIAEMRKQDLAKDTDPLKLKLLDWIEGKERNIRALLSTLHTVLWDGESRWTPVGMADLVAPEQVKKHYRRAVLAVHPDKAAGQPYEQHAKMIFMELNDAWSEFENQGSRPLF
Briefly: Binding affinity to human wild type partial length GAK (G13 to Y338 residues) expressed in bacterial expression system by KinomeScan method.

In test [2] the target is T2, Activin receptor type-1 (Homo sapiens) (UniProt Q04771).
T2 sequence (whole entry): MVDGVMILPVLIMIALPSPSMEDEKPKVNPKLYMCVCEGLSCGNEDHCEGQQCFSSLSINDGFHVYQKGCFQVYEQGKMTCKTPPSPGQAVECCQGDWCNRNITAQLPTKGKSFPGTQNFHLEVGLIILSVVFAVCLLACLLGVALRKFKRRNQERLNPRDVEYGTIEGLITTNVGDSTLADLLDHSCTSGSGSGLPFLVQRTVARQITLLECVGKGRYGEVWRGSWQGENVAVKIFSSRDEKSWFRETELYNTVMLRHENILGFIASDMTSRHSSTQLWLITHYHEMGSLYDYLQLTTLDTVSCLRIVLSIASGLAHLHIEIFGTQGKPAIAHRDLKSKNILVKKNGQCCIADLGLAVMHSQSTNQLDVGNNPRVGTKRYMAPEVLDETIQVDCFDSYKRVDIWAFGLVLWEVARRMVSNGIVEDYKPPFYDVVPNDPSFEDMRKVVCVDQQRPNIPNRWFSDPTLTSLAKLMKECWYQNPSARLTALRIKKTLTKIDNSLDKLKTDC
Briefly: Inhibition of human wild type partial length ALK2 (C188 to C509 residues) expressed in bacterial expression system at 1 uM by Kinomescan method relative to control.

Test [3] addresses Epidermal growth factor receptor (Homo sapiens) (UniProt P00533). Briefly: Inhibition of human wild type partial length EGFR (R669 to V1011 residues) expressed in bacterial expression system at 1 uM by Kinomescan method.
The target in test [4] is T3, Ephrin type-A receptor 1 (Homo sapiens) (UniProt P21709).
T3 sequence (whole entry): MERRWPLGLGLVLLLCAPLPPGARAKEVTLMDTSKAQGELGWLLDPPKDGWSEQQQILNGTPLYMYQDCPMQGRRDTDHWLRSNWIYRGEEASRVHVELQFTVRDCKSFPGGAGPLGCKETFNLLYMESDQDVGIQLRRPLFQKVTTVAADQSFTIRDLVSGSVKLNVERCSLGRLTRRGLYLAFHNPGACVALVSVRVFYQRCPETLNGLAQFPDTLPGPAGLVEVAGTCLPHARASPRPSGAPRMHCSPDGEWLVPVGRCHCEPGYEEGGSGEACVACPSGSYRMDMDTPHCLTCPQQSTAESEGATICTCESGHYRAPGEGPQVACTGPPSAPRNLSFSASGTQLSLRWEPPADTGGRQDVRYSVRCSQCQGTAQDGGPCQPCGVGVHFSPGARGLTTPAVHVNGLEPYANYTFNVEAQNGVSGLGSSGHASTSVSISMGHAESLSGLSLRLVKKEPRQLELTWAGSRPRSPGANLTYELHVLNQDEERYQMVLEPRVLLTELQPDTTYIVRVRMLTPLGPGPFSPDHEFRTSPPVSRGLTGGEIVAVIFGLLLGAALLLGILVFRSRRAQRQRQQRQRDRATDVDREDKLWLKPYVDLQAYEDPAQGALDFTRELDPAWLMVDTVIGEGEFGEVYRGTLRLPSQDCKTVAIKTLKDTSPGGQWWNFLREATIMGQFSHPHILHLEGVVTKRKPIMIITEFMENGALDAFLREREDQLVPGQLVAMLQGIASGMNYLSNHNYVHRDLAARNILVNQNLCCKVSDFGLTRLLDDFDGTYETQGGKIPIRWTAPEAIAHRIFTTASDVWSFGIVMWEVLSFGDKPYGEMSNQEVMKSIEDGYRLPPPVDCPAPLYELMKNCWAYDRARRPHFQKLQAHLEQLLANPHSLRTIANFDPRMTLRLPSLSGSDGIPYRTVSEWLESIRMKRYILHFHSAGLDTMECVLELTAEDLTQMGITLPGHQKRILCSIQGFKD
The test can be described thus: Inhibition of human wild type partial length EphA1 (V588 to I913 residues) expressed in bacterial expression system at 1 uM by Kinomescan method.

For test [5], the target named is Tyrosine-protein kinase Fyn (Homo sapiens) (UniProt P06241). The test can be described thus: Inhibition of human wild type partial length Fyn (T243 to L534 residues) expressed in bacterial expression system at 1 uM by Kinomescan method.
Tyrosine-protein kinase Fyn (Homo sapiens), sequence (P06241 2-537 limits assumed): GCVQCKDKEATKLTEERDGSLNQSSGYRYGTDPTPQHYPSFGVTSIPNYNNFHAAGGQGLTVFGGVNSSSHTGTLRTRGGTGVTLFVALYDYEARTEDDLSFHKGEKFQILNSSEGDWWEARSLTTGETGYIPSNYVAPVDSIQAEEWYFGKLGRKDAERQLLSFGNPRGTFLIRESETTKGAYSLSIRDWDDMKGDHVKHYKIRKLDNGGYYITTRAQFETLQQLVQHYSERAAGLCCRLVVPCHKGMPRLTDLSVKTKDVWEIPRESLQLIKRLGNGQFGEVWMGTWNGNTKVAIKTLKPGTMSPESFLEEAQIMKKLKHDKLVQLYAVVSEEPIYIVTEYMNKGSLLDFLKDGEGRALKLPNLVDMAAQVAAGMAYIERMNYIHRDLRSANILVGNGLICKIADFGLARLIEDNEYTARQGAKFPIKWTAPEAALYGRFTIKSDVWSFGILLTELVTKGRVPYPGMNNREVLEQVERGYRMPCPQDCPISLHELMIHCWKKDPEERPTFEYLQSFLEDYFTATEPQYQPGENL

Calls of active or inactive are those of the source. The calls are words filed in the database; no cut-off is given here.

Epidermal growth factor receptor (Homo sapiens), sequence (P00533 whole entry, the tested form may be a part): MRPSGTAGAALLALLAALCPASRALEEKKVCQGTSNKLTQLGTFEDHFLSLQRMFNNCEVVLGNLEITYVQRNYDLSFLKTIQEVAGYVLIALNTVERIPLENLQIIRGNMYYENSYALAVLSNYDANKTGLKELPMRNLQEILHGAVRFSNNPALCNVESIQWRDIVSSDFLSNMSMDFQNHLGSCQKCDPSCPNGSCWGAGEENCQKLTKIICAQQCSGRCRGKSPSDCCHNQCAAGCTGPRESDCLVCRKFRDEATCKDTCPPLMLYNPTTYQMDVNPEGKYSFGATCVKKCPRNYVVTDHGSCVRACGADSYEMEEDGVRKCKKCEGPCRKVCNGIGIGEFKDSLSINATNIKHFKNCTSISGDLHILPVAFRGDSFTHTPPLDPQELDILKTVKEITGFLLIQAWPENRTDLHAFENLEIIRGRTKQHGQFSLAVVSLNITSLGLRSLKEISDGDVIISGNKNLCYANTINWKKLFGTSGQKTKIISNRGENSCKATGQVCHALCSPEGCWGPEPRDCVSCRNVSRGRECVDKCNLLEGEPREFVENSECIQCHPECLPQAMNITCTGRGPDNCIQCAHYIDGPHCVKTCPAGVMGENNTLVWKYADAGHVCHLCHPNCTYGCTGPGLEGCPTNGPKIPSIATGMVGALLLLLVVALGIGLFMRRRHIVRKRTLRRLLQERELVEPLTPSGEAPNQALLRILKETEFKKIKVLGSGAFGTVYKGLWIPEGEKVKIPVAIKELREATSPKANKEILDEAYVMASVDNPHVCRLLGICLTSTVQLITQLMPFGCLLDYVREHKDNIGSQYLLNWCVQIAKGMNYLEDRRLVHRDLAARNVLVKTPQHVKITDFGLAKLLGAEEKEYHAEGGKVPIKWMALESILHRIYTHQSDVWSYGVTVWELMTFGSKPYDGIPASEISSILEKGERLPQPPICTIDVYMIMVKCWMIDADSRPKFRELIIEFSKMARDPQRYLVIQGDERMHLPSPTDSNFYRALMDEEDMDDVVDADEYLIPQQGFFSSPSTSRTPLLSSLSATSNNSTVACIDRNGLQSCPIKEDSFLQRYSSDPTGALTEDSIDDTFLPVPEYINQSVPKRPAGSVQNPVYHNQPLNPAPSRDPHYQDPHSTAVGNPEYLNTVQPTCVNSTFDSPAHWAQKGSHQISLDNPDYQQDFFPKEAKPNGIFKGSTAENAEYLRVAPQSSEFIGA

Consider `COc1cc(Nc2ccnc3cc(C#N)ccc23)cc(OC)c1OC`, for which the Kd – broadly, the free concentration of one partner at which half of the binding sites on the other are occupied at equilibrium, for simple one-to-one binding – in test [1] turned out to be 43 nM. For the same compound, the inhibition (commonly the drop in the measured response relative to a control, in per cent) in test [2] stood at 80%. Further, the inhibition entry in test [3] is “inactive”. Also, the inhibition entry in test [4] and in test [5] was “Active” each time.
Take `COc1cc(Nc2ccnc3cc(Br)ccc23)cc(OC)c1OC`: in test [1], the affinity, expressed as Kd, was 8.6 nM. Besides, in test [2], the inhibition is 80%. The inhibition entry in test [3] was “inactive”. For the same compound, the inhibition result in test [4] and in test [5] was “Active” each time.
In test [1], `COc1cc(Nc2ccnc3cc(Cl)ccc23)cc(OC)c1OC` registered a Kd of 13 nM. The compound further showed an inhibition in test [2] of 80%. Further, the inhibition entry in test [3] was “inactive”. In addition, the inhibition entry in test [4] and in test [5] was “Active” each time.
`COc1cc(Nc2ccnc3cc(C(F)(F)F)ccc23)cc(OC)c1OC` came in with a Kd in test [1] of 23 nM. In addition, in test [2], the inhibition was 80%. The inhibition entry in test [3] was “inactive”. In addition, the inhibition result in test [4] and in test [5] was “Active” in each case.
Regarding `COc1cc(Nc2ccnc3cc(I)ccc23)cc(OC)c1OC`, the Kd in test [1] is 7.6 nM. In test [2], this compound registered an inhibition of 80%. Moreover, the inhibition entry in test [3] was “inactive”. Moreover, the inhibition entry in test [4] and in test [5] was “Active” in each case.

The values are drawn from ChEMBL document CHEMBL4665659, “Utilizing comprehensive and mini-kinome panels to optimize the selectivity of quinoline inhibitors for cyclin G associated kinase (GAK)” (Bioorg Med Chem Lett, 2019).
